ChEMBL document CHEMBL1146572, “Isolation and characterization of miscellaneous secondary metabolites of Deprea subtriflora” (J Nat Prod, 2003)

Assays:
[1] = Chemoprevention index, ratio of IC50 for mouse Hepa-1c1c7 cells to CD for NADPH:quinone reductase specific activity in mouse Hepa-1c1c7 cells; format: functional
[2] = Growth inhibition of mouse Hepa-1c1c7 cells; format: cell-based

Row | Structure (SMILES) | Ratio [1] | IC50 [2] [µM]
1 | C[C@H]1CC([C@](C)(O)[C@@]2(O)CC[C@H]3[C@@H]4C[C@H]5O[C@]56[C@@H](O)C=CC(=O)[C@]6(C)[C@H]4CC[C@@]32C)OC(=O)[C@@H]1C (stereo partly specified) [PHILADELPHICALACTONE A] | 11.8 | 0.47
2 | C[C@H]1C(=O)OC(C2O[C@]34C[C@H]5[C@@H](C[C@H]6O[C@H]7CC(=O)[C@@]5(C)[C@@]6(O)C7=O)[C@@H]5C[C@@H](O3)[C@@H]([C@@H]54)[C@@]2(C)O)[C@@H]1C (stereo partly specified) [SUBTRIFLORALACTONE K] | 13.3 | 4.8
3 | C[S+]([O-])CCCCN=C=S (stereo unspecified) [SULFORAPHANE] | 23.9 | 11.7
